In patent US7919076B2, “PH-sensitive polymeric conjugates of an anthracycline cancerostatic drug for targeted therapy” (Zentiva, k.s., priority 2001, dated 2011):

Tested on: T-cellular lymphoma (EL4)
Assay: in vivo anti-tumor activity, s.c. T-cellular lymphoma EL4 in C57BL/10 mice
Design: species or system mouse
Protocol: Mice of inbred strain C57BL/10 were subcutaneously transplanted with T-cellular lymphoma (EL4). The tumor cells were injected in the lower half of the back of experimental animals in the amount of 1×10^5 cells/mouse. The cell transplantation day was marked day 0. Polymeric conjugates with hydrolytically released doxorubicin were then administered intraperitoneally either on day 1, 3, 5, 7 and 9 (protective regimen), on day 10, 12, 14, 16 and 18 or on day 12, 14, 16, 18 and 20 (therapeutic regimen). The daily dose of doxorubicin was 50 μg/mouse.

COc1cccc2c1C(=O)c1c(O)c3c(c(O)c1C2=O)C[C@@](O)(C(=O)CO)C[C@@H]3O[C@H]1C[C@H](N)[C@H](O)[C@H](C)O1 [doxorubicin]
anti-tumor effect (tumor growth, survival) (EL4, i.p., doxorubicin 50 μg/mouse daily dose): very limited effect
maximum survival period of the experimental animals (EL4, control group 35 days): 40 days
